Test results taken from patent publication US10369229B2, “Methods and compositions for liposomal formulation of antigens and uses thereof” (priority 2009, dated 2019).

Legend:
[1] = test system: N-MPR (2F5 epitope of HIV-1 gp41 MPR); details: BALB/C mice, Day 28 sera
Procedure: All animal procedures were conducted in accordance with the policies and approval of the appropriate Institutional Animal Care and Use Committee. 8 week-old female BALB/C mice (Jackson Laboratories, Bar Harbor, Me.) were housed in a pathogen-free barrier facility. Animals received subcutaneous immunizations in alternating hind hocks on Days 0 and 14. Each injection contained 50 μg lipopeptide, 25 μg MPL and 1 μmol lipid vehicle in 50 μL sterile phosphate-buffered saline. On Day 28 blood was collected from the submandibular vein for characterization of antibody responses. Cells were removed by centrifugation at 14,000 rpm for 15 min (5415C, Eppendorf, Westbury, N.Y.) and sera were stored at −80° C. until use.
ELISAs were developed to quantify binding of immune sera to peptides, lipids, and recombinant gp140. Peptide ELISAs were conducted using MPR peptides biotinylated as described above and captured on 96 well streptavidin-coated plates (#15120, Pierce, Rockford, Ill.). Assays were performed according to the manufacturer's instructions with modifications. […] The reaction was stopped with 0.5M H2SO4 and the yellow product was monitored at 450 nm (Optimax, Molecular Devices, Sunnyvale, Calif.). […] IgG1/IgG2a ratios were calculated as an average of optical density quotients measured at 3 dilutions after subtraction of background values. […]

[2] = Circular dichroism of liposomal lipopeptides (percent helicity); type: physicochemical; details: formulated in liposomes; estimated from θ222
Procedure: Liposomal lipopeptide samples were prepared as described above with the following modifications. Stock liposome solutions containing 5 mM carrier lipid and 500 μM lipopeptide were prepared in 10 mM phosphate, pH 7.4. To minimize light scattering, liposomes were prepared by bath sonication under argon until a size of less than 100 nm was obtained. For analysis, samples were diluted to 5 μM lipopeptide in 10 mM phosphate buffer containing 1 mM carrier lipid. Spectra were obtained with a J-715 spectrapolarimeter (Jasco, Easton, Md.) and data were processed using Jasco software. Data were acquired in continuous scanning mode with a pathlength of 1 cm, 0.1 nm interval and scan speed of 1 nm/s. Each spectrum represents an average of two scans. A background spectrum of “empty” liposomes in buffer was subtracted from each sample spectrum. Percent helicity was estimated from θ222 according to the method of Taylor and Kaiser.

## N-MPR: peptide corresponding to the 2F5 epitope of HIV-1 gp41 MPR (SEQ ID NO: 2) (NEQELLELDKWASLWNGGK)
[1]
  mice with detected anti-peptide response: 2 of 5
[2]
  helicity (helical content): 20.7%
